Experimental data from patent publication US7560450B2, “Xanthine derivatives, the preparation thereof and their use as pharmaceutical compositions” (Boehringer Ingelheim Pharma GmbH & Co., KG, priority 2002, dated 2009).

Legend:
[1] = molecular target: T1, DPP-IV (Homo sapiens, UniProt P27487); test: DPP-IV assay with Caco-2 cell extract as DPP IV source; type: biochemical; conditions: extract of human colon carcinoma cell line Caco-2 as DPP IV source; substrate AFC 100 μM; 60 minutes at ambient temperature; 11 measuring points; read-out: DPP IV inhibition IC50
T1 construct: an extract of human colon carcinoma cell line Caco-2 is used as the DPP IV source; endogenous in cells; host or cells: Caco-2 (human colon carcinoma), differentiated to induce DPP-IV expression; Nonidet-P40 solubilised extract
Protocol: The differentiation of the cells in order to induce the DPP-IV expression was carried out as described by Reiher et al. in an article entitled “Increased expression of intestinal cell line Caco-2”, which appeared in Proc. Natl. Acad. Sci. Vol. 90, pages 5757-5761 (1993). The cell extract was obtained from cells solubilised in a buffer (10 mM Tris HCl, 0.15 M NaCl, 0.04 t.i.u. aprotinin, 0.5% Nonidet-P40, pH 8.0) by centrifuging at 35,000 g for 30 minutes at 4° C. (to remove cell debris).
The DPP-IV assay was carried out as follows:
50 μl substrate solution (AFC; AFC is amido-4-trifluoromethylcoumarin), final concentration 100 μM, were placed in black microtitre plates. 20 μl of assay buffer (final concentrations 50 mM Tris HCl pH 7.8, 50 mM NaCl, 1% DMSO) was pipetted in. The reaction was started by adding 30 μl of solubilised Caco-2 protein (final concentration 0.14 μg of protein per well). The test substances to be investigated were typically added prediluted in 20 μl, and the volume of assay buffer was then reduced accordingly. The reaction was carried out at ambient temperature, incubating for 60 minutes. Then the fluorescence was measured in a Victor 1420 Multilabel Counter, the excitation wavelength being 405 nm and the emission wavelength being 535 nm. Blank readings (corresponding to 0% activity) were obtained in mixtures without any Caco-2 protein (volume replaced by assay buffer), control values (corresponding to 100% activity) were obtained in mixtures with no substance added. The potency of the test substances in question, expressed as IC50 values, was calculated from dosage/activity curves consisting of 11 measuring points in each case.

[2] = tested on: rats; test: Tolerability after oral administration to rats (behaviour); type: in vivo; conditions: 10 mg/kg

T1 sequence (P27487 whole entry): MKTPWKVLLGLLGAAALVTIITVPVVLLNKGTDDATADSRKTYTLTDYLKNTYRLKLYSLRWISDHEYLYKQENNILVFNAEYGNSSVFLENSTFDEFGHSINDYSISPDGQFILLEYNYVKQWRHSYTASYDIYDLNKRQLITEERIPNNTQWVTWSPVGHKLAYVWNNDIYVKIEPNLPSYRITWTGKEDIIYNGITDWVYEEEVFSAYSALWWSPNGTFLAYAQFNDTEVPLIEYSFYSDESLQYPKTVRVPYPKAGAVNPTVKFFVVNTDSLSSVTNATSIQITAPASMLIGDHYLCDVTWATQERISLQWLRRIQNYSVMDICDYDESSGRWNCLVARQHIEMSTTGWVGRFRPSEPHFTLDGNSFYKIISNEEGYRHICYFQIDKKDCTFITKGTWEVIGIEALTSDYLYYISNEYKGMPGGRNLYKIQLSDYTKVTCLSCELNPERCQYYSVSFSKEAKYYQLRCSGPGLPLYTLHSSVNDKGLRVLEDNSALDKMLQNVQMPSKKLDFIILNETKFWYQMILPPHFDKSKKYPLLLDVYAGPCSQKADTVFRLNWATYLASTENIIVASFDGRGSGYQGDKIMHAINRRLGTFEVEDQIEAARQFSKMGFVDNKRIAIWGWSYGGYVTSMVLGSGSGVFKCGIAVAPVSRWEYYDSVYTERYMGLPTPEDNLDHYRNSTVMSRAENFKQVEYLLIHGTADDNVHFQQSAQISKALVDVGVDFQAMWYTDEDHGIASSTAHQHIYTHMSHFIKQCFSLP

SMILES | IC50 [1] [nM] | changes in the animals' behaviour [2]
CC#CCn1c(N2CCC[C@@H](N)C2)nc2c1c(=O)n(CC(=O)NCc1ccccc1)c(=O)n2C [1(1), 1-[(benzylaminocarbonyl)methyl]-3-methyl-7-(2-butyn-1-yl)-8-[(R)-3-amino-piperidin-1-yl]-xanthine] | 46 | 
CC#CCn1c(N2CCC[C@@H](N)C2)nc2c1c(=O)n(CC(=O)Nc1ccccc1)c(=O)n2C [1(2), 1-[(phenylaminocarbonyl)methyl]-3-methyl-7-(2-butyn-1-yl)-8-[(R)-3-amino-piperidin-1-yl]-xanthine] | 26 | 
CC#CCn1c(N2CCC[C@@H](N)C2)nc2c1c(=O)n(CC(=O)OCc1cccnc1)c(=O)n2C [1(4), 1-{[(pyridin-3-yl)methoxycarbonyl]methyl}-3-methyl-7-(2-butyn-1-yl)-8-[(R)-3-amino-piperidin-1-yl]-xanthine] | 13 | 
CC#CCn1c(N2CCC[C@@H](N)C2)nc2c1c(=O)n(CC(=O)Nc1cccnc1)c(=O)n2C [1(5), 1-{[(pyridin-3-yl)aminocarbonyl]methyl}-3-methyl-7-(2-butyn-1-yl)-8-[(R)-3-amino-piperidin-1-yl]-xanthine] | 7 | 
CC#CCn1c(N2CCC[C@@H](N)C2)nc2c1c(=O)n(CC(=O)Nc1ccccc1[N+](=O)[O-])c(=O)n2C [1(7), 1-{[(2-nitro-phenyl)aminocarbonyl]methyl}-3-methyl-7-(2-butyn-1-yl)-8-[(R)-3-amino-piperidin-1-yl]-xanthine] | 4 | 
CC#CCn1c(N2CCCC(N)C2)nc2c1c(=O)n(CC(=O)COc1ccccc1)c(=O)n2C (stereo not shown) [1(10), 1-(2-oxo-3-phenoxy-propyl)-3-methyl-7-(2-butyn-1-yl)-8-(3-amino-piperidin-1-yl)-xanthine] | 286 | 
CC#CCn1c(N2CCCC(N)C2)nc2c1c(=O)n(CC(=O)NCc1ccccc1N)c(=O)n2C (stereo not shown) [1(11), 1-[(2-amino-benzylaminocarbonyl)methyl]-3-methyl-7-(2-butyn-1-yl)-8-(3-amino-piperidin-1-yl)-xanthine] | 28 | 

Further lines, with some results ahead:

IC50 [1] [nM] | SMILES | changes in the animals' behaviour [2]
722 | CC#CCn1c(N2CCC[C@@H](N)C2)nc2c1c(=O)n(CC(=O)Nc1ccccc1C)c(=O)n2C [1(6), 1-{[(2-methyl-phenyl)aminocarbonyl]methyl}-3-methyl-7-(2-butyn-1-yl)-8-[(R)-3-amino-piperidin-1-yl]-xanthine] | 
42 | CC#CCn1c(N2CCCC(N)C2)nc2c1c(=O)n(CC(=O)Nc1ccc(C#N)cc1)c(=O)n2C (stereo not shown) [1(8), 1-{[(4-cyano-phenyl)aminocarbonyl]methyl}-3-methyl-7-(2-butyn-1-yl)-8-(3-amino-piperidin-1-yl)-xanthine] | 
32 | CC#CCn1c(N2CCC[C@@H](N)C2)nc2c1c(=O)n(CC(=O)Nc1ccccc1OC)c(=O)n2C [1(9), 1-{[(2-methoxy-phenyl)aminocarbonyl]methyl}-3-methyl-7-(2-butyn-1-yl)-8-[(R)-3-amino-piperidin-1-yl]-xanthine] | 
4 | CC#CCn1c(N2CCC[C@@H](N)C2)nc2c1c(=O)n(CC(=O)Nc1ccccn1)c(=O)n2C [Example 1(3), 1-{[(pyridin-2-yl)aminocarbonyl]methyl}-3-methyl-7-(2-butyn-1-yl)-8-[(R)-3-amino-piperidin-1-yl]-xanthine] | no changes in the animals' behaviour could be detected
27 | CC#CCn1c(N2CCC[C@@H](N)C2)nc2c1c(=O)n(CC(=O)OCc1ccccc1)c(=O)n2C [Example 1, 1-[(benzyloxycarbonyl)methyl]-3-methyl-7-(2-butyn-1-yl)-8-[(R)-3-amino-piperidin-1-yl]-xanthine] | 
